Converted amounts (≈) assume the structure as drawn. Blank lines part the entries; values can stand above or below the molecule they belong to.
Columns and labels:
KB [1] = assay: Antiproliferative activity against human KB cells assessed as inhibition of cell growth incubated for 72 hrs by neutral red based colorimetric assay; assay type: functional
SW480 [2] = assay: Antiproliferative activity against human SW480 cells assessed as inhibition of cell growth incubated for 48 hrs by MTT assay; assay type: functional, cell-based; settings: SW480, 48 h
A549 [3] = assay: Antiproliferative activity against human A549 cells assessed as inhibition of cell growth incubated for 48 hrs by MTS assay; assay type: functional, cell-based; settings: A549, 48 h
MCF7 [4] = assay: Antiproliferative activity against human MCF7 cells assessed as inhibition of cell growth incubated for 48 hrs by MTT assay; assay type: functional, cell-based; settings: MCF7, 48 h
HT-29 = assay: Antiproliferative activity against human HT-29 cells assessed as inhibition of cell growth incubated for 48 hrs by MTS assay; assay type: functional, cell-based; settings: HT-29, 48 h
HeLa = assay: Antiproliferative activity against human HeLa cells assessed as inhibition of cell growth incubated for 48 hrs by MTT assay; assay type: functional, cell-based
SMMC-7721 = assay: Antiproliferative activity against human SMMC-7721 cells assessed as inhibition of cell growth incubated for 48 hrs by MTS assay; assay type: functional, cell-based; settings: SMMC-7721, 48 h
MCF7 [5] = assay: Antiproliferative activity against human MCF7 cells assessed as inhibition of cell growth incubated for 48 hrs by MTS assay; assay type: functional, cell-based; settings: MCF7, 48 h
HL-60 [6] = assay: Antiproliferative activity against human HL-60 cells assessed as inhibition of cell growth incubated for 48 hrs by MTS assay; assay type: functional, cell-based; settings: HL-60, 48 h
SW480 [7] = assay: Antiproliferative activity against human SW480 cells assessed as inhibition of cell growth incubated for 48 hrs by MTS assay; assay type: functional, cell-based; settings: SW480, 48 h
[8] = Antiproliferative activity against vincristine-resistant human KB cells assessed as inhibition of cell growth; assay type: functional, cell-based
KB [9] = assay: Antiproliferative activity against drug-sensitive human KB cells assessed as inhibition of cell growth; assay type: functional, cell-based
MCF7 [10] = assay: Antiproliferative activity against human MCF7 cells assessed as inhibition of cell growth by MTT assay; assay type: functional, cell-based
LoVo = assay: Antiproliferative activity against human LoVo cells assessed as inhibition of cell growth by MTT assay; assay type: functional, cell-based
HepG2 = assay: Antiproliferative activity against human HepG2 cells assessed as inhibition of cell growth by MTT assay; assay type: functional, cell-based
HCT-116 = assay: Cytotoxicity against human HCT-116 cells assessed as reduction in cell viability at 20 uM measured after 48 hrs by MTS assay relative to control; assay type: functional
A549 [11] = assay: Antiproliferative activity against human A549 cells assessed as inhibition of cell growth incubated for 72 hrs by SRB assay; assay type: functional, cell-based; settings: A549, 72 h
MCF7 [12] = assay: Antiproliferative activity against human MCF7 cells assessed as inhibition of cell growth incubated for 72 hrs by SRB assay; assay type: functional, cell-based; settings: MCF7, 72 h
MCF7 [13] = assay: Antiproliferative activity against human MCF7 cells assessed as inhibition of cell growth incubated for 24 hrs by MTT assay; assay type: functional, cell-based; settings: MCF7, 24 h
[14] = Antiproliferative activity against mouse […] cells assessed as inhibition of cell growth; assay type: functional, cell-based
[15] = Antiproliferative activity against human BC cells assessed as inhibition of cell growth incubated for 24 hrs by MTT assay; assay type: functional, cell-based
AGS = assay: Antiproliferative activity against human AGS cells assessed as inhibition of cell growth incubated for 24 hrs by MTT assay; assay type: functional, cell-based
L1210 = assay: Antiproliferative activity against mouse L1210 cells assessed as inhibition of cell growth incubated for 24 hrs by MTT assay; assay type: functional, cell-based; settings: L1210, 24 h
HL-60 [16] = assay: Antiproliferative activity against human HL-60 cells assessed as inhibition of cell growth incubated for 48 hrs by WST-1 assay; assay type: functional, cell-based; settings: HL-60, 48 h
K562 = assay: Antiproliferative activity against human K562 cells assessed as inhibition of cell growth incubated for 48 hrs by WST-1 assay; assay type: functional, cell-based; settings: K562, 48 h

IC50 (KB [1]): 5 µM
Structure (SMILES): C/C=C1/CN2CC[C@@]34c5cc(OC)c(-c6cc7c8c(n(C)c7cc6OC)[C@@H]6[C@H]7O[C@@H](C)[C@H](CN6C(=O)C(C)C)[C@H]7[C@H]8C(=O)OC)c(C)c5N[C@@]23CC[C@H]1[C@H]4C(=O)OC

IC50 (SW480 [2]): 1.42 µM | IC50 (A549 [3]): 3.41 µM | IC50 (MCF7 [4]): 1.42 µM | IC50 (HT-29): 0.75 µM | IC50 (HeLa): 1.42 µM | IC50 (SMMC-7721): 0.3 µM
Structure (SMILES): CC[C@]12C=CCN3CC[C@]4(C(=C(C(=O)OC)C1)Nc1cc5c(cc14)[C@@H]1[C@H](O5)[C@@H](O)[C@@]4(CC)CC(C(=O)OC)=C5Nc6c(ccc(OC)c6OC)[C@@]56CCN1[C@@H]46)[C@@H]32

IC50 (A549 [3]): 13.1 µM | IC50 (MCF7 [5]): 13.1 µM | IC50 (HL-60 [6]): 13.1 µM | IC50 (SMMC-7721): 13.1 µM | IC50 (SW480 [7]): 13.1 µM
Structure (SMILES): CC[C@]12C=C[C@H]([C@@]34CN5CC[C@]67C(=C(C(=O)OC)C[C@](CC)([C@@H]3O4)[C@H]56)Nc3cc(OC)ccc37)N3CC[C@]4(C(=C(C(=O)OC)C1)Nc1cc(OC)ccc14)[C@@H]32

IC50 (KB [9]): 0.57 µM
Structure (SMILES): CC[C@H]1[C@@H]2CCN3CC[C@@]4(C5=C2C[C@@]2(CN5c5ccccc54)C4=Nc5ccccc5[C@]45CCN4CC[C@H]2[C@H](CC)[C@@H]45)[C@@H]13
IC50 [8]: 0.57 µM

IC50 (MCF7 [10]): 42.7 µM | IC50 (LoVo): > 100 µM | IC50 (HepG2): 28.1 µM
Structure (SMILES): CC[C@]1(O)C[C@H]2C[C@](C(=O)OC)(c3cc4c(cc3OC)N(C)[C@@H]3[C@]45CCN4CC=C[C@@](CC)(C[C@]3(O)C(=O)OC)[C@H]45)c3[nH]c4ccccc4c3CC[N+]([O-])(C2)C1

IC50 (A549 [11]): 10.9 µM | IC50 (MCF7 [12]): 10.9 µM
Structure (SMILES): CC[C@H]1CN(C)[C@H]2Cc3c([nH]c4ccccc34)[C@H](c3c(OC)ccc4c5c([nH]c34)[C@]3(C(=O)OC)C[C@@H]4C[C@H](CC)[C@@H]3N(CC5)C4)C[C@H]1[C@@H]2C(=O)OC
Activity (HCT-116): 40%

IC50 (HepG2): 38.1 µM
Structure (SMILES): C/C=C1/CN(C)[C@H]2Cc3c([nH]c4ccccc34)[C@H](c3c(OC)ccc4c5c6n(c34)C[C@@H]3C[C@@H](CC)[C@@H](NCC5)[C@@]6(C(=O)OC)C3)C[C@H]1[C@]2(CO)C(=O)OC

Structure (SMILES): CC[C@@]12CC(C(=O)OC)=C3Nc4cc5c(cc4[C@@]34CCN(C[C@@H]3O[C@@H]31)[C@@H]24)[C@@H]1[C@H](O5)[C@@H](O)[C@@]2(CC)CC(C(=O)OC)=C3Nc4c(cc(O)c(OC)c4OC)[C@@]34CCN1[C@@H]24
IC50 (SW480 [2]): 1.42 µM | IC50 (MCF7 [4]): 1.42 µM | IC50 (HeLa): 1.42 µM

IC50 (MCF7 [13]): 31.7 µM
Structure (SMILES): O=C1C[C@H]2c3cc(O)c(O)cc3[C@]3(Nc4ccccc4C3=O)[C@]23C(=O)c2ccccc2N13

Structure (SMILES): Brc1ccc2c(-c3c[nH]c(-c4c[nH]c5cc(Br)ccc45)n3)c[nH]c2c1 [NORTOPSENTIN A]
IC50 [14]: 7.6 µg/mL (≈ 16.7 µM)

Structure (SMILES): Brc1ccc2c(-c3nc(-c4c[nH]c5ccccc45)c[nH]3)c[nH]c2c1 [NORTOPSENTIN B]
IC50 [14]: 7.8 µg/mL (≈ 20.7 µM)

Structure (SMILES): Brc1ccc2c(-c3c[nH]c(-c4c[nH]c5ccccc45)n3)c[nH]c2c1 [NORTOPSENTIN C]
IC50 [14]: 1.7 µg/mL (≈ 4.51 µM)

IC50 (AGS): 1.1 µg/mL (≈ 2.7 µM) | IC50 (L1210): 1.1 µg/mL (≈ 2.7 µM)
Structure (SMILES): O=C(C1=NC(c2c[nH]c3cc(Br)ccc23)CN1)c1c[nH]c2ccccc12 (centres undefined) [SPONGOTINE A]
IC50 [15]: 10.7 µg/mL (≈ 26.3 µM)

IC50 (KB [1]): 0.008 µM
Structure (SMILES): CC[C@]1(O)C[C@@H]2CN(CCc3c([nH]c4ccccc34)[C@@](C(=O)OC)(c3cc4c(cc3OC)N(C)[C@H]3[C@@](O)(C(=O)OC)[C@H](OC(C)=O)[C@]5(CC)C=CCN6CC[C@]43[C@@H]65)C2)C1 [VINBLASTINE]

Structure (SMILES): CC[C@]12CN3CCc4c([nH]c5ccccc45)[C@@](C(=O)OC)(c4cc5c(cc4OC)N(C)[C@H]4[C@@](O)(C(=O)OC)[C@H](OC(C)=O)[C@]6(CC)C=CCN7CC[C@]54[C@@H]76)C[C@@H](C3)[C@H]1O2 [VINLEUROSINE]
IC50 (HL-60 [16]): 56.2 µM | IC50 (K562): 56.2 µM

Source: ChEMBL document CHEMBL5331060, “Bisindole natural products: A vital source for the development of new anticancer drugs” (Eur J Med Chem, 2022)
